Measurements published in patent US20110110886A1, “SMALL MOLECULE INHIBITORS OF AUTOTAXIN AND METHODS OF USE” (Yale University, priority 2008, published 2011).

Tests used:
[1] = oral, ref. [43]; cited from earlier work
[2] = oral doses of 50 mg/kg in 3 divided alternate daily doses for 5 days; rabbits, dogs, and humans; cited from earlier work
[3] = system: melanoma cell line HTB 63; test: Cell migration assay, melanoma cell line HTB 63; format: cell-based, human
Procedure: 9B. […] All error bars in this figure indicate the standard error of the mean for nine replicates. The addition of LPA to the experimental groups containing inhibitors (LPA rescue) completely abrogated the small molecule inhibitory effect on cell motility (see discussion). […] Cell culture: Human melanoma cells, A2058 (ATCC), were grown in Dulbecco's Modified Eagle's Medium (DMEM) (Gibco), MeI 28 (ATCC), YUSAC2 (Yale University) and MeI-888 (Yale University) were grown in OptiMEM media (Gibco), and HTB 63 (ATCC) were grown in McKoy's 5a medium (ATCC). Human breast adenocarcinoma cells, MDA-MB-231(ATCC) and ovarian carcinoma cells […] (Gil Mor, Yale University) were grown in RPMI-1640 (Gibco). All cell media was supplemented with 10% (v/v) fetal calf serum (FCS) (Gibco) and 1% (v/v) L-glutamine (Gibco) and grown at 37° C. in a humidified atmosphere containing 5% CO2. Cell motility assays: […] Chemo-attractant (ATX ±inhibitor) and/or controls were placed in the lower half of the chamber, and the cells in the upper chamber. […] Non-migrating cells were removed from the membrane by scraping the top surface. The cells were quantitated by counting the cell number per high powered field in the various wells. Treatments were compared using a chi squared test.

[4] = system: human melanoma cell line (A2058); test: Boyden chamber cell migration assay, melanoma cells; format: cell-based; conditions: A2058, 50 nM ATX, 4 hours
Procedure: All cell media was supplemented with 10% (v/v) fetal calf serum (FCS) (Gibco) and 1% (v/v) L-glutamine (Gibco) and grown at 37° C. in a humidified atmosphere containing 5% CO2.
The assay chambers are divided by a gelatin-coated membrane with […] pores (NeuroProbe). […] The chambers were then incubated at 37° C. for 4 hours, after which the filters were removed, fixed in 100% methanol, stained with a DiffQuick solution, and mounted onto glass slides. Non-migrating cells were removed from the membrane by scraping the top surface. The cells were quantitated by counting the cell number per high powered field in the various wells. Treatments were compared using a chi squared test.

[5] = system: human melanoma cell line A2058; test: Melanoma invasion and metastasis in vivo, nude mice with subcutaneous A2058; conditions: oral gavage of bithionol-cyclodextrin suspension
Procedure: (§1) Nude mice were inoculated with human melanoma cell line A2058 subcutaneously in the right flank and observed until the tumor was palpable (about 5-8 days). The mice were then treated with oral gavage of a bithionol-cyclodextrin suspension (A-D) or a cyclodextrin suspension alone (E-H). […] Two of the untreated mice developed large tumors in the right hindquarter (cyan arrow, E) that grossly invaded the right gluteous maximus and could not be dissected without amputation (E&F). […] Of the remaining untreated mice, one developed a modest sized tumor with microscopic evidence of invasion, and a one developed a tumor without gross or microscopic evidence of invasive tumor.
as §1, with “The present invention was also tested in vivo. Nude” for “Nude”

ATX lyso-PLD activity = target: T1, ATX lyso-PLD activity (Homo sapiens, UniProt Q13822); test: Time course assay of ATX lyso-PLD activity (FS-3 fluorescent product) with or without 10 μM compound over 30 minutes; format: biochemical; conditions: 10 μM inhibitor, 30 minute interval, 300 nM ATX
T1 construct: consistent with a mature, glycosylated form of the enzyme; TEV cleavage site (C); 9-His (C); 6-His (C); made in house; host or cells: High Five insect cells (baculovirus, p-DEST-8)
Procedure: C. Structure of hexachlorophene, merbromin. Bithionol and their analogs -2,2′-Methylenebis(4-chlorophenol), Eosin Y and RJC 03297, respectively. D. Structure of NSC 48300 and its analogs. […] The assay conditions are 300 nM ATX in the presence or absence of 10 μM compound over 30 minutes.
Inhibitor screen: High throughput screens were performed against two libraries: the GenPlus library of 960 compounds (NINDS Custom Collection, MicroSource Discovery systems) and the NCI Diversity Set (1990 compounds, see http://dtp.nci.nih.gov/branches/dscb/repo_open.html). The screens were performed at the Yale Center for Chemical Genomics utilizing a Tecan Aquarius robot in combination with an Aquarius liquid handler and a Freedom EVO Workstation. A V&P Scientific 384 pin tool transferred small molecules (10 mM stock) from library plates into the optically clear, 384 well assay plates, and an Aquarius liquid handling robot transferred protein into the individual wells. The assays were performed in a total volume of 50 μL in assay buffer (50 mM Tris, 140 mM NaCl, 1 mM MgCl2, and 5 mM CaCl2, pH 8.0). Absorbance of p-nitrophenylate, the product of ATX's PDE activity with pNP-TMP (discussed below) was measured at 405 nm over a period of 12 hours. To monitor lysophospholipase-D activity, the fluorescence of FS-3 (625 nM or 4 μM) was monitored (λex=480 nm, λem=535 nm) in assay buffer over a period of 30 minutes in the presence of 300 nM ATX and 10 μM compound. The assay was evaluated using a statistical Z′ analysis, a quantitative measure to determine assay robustness for single point analysis on a high throughput screening platform. The Z′ analysis was performed from 32 maximum control values (c+) and 32 minimum controls (c−) on each plate. Assays consistently performed with Z′ factors of 0.75-0.85, higher than the minimum 0.5 considered robust.
Inhibition of ATX lyso-PLD activity by several NSC48300 analogs was qualitatively compared in a time course assay by measuring the production of fluorescent product in the presence or absence of 10 µM inhibitor over a 30 minute interval.

Row | SMILES | dose that can be safely dosed in humans [1] | serum levels [2] [µM] | inhibition of ATX-stimulated HTB63 cell migration ([3]; 50 nM ATX, 3 hours) | LPA rescue of inhibited HTB63 cell migration ([3]; excess LPA (75 nM)) | inhibition of ATX-induced stimulation of melanoma cell motility [4] | microscopic appearance of the tumors [5] | gross evidence of metastatic melanoma upon necropsy ([5]; 5 mice) | less product formation when compared to the enzyme alone (ATX lyso-PLD activity) [%]
1 | Oc1c(Cl)cc(Cl)cc1Sc1cc(Cl)cc(Cl)c1O [Bithionol] | 25 mg kg^−1 body weight per day | 140 to 550 | can be inhibited | rescued by excess LPA | inhibited in a dose-dependent manner | self-contained balls of tumor cells (C) with a pushing border | lacked gross evidence of metastatic melanoma | –
2 | O=[As](O)(O)c1ccc(Cc2ccc([As](=O)(O)O)cc2)cc1 [NSC 48300] | – | – | – | – | inhibited in a dose-dependent manner | – | – | 98.0
